The values below come from patent publication US20050107315A1, “Mammary-associated serum amuloid a3 promoter sequences and used for same” (Board of Regents of the University of Nebraska, priority 2001, published 2005).

One data set concerns MUC3 mRNA. Nature of the data set: MUC3 mRNA induction in intestinal epithelial cells (MUC3 mRNA/28S rRNA ratio). Type of data set: cell-based, human. To be noted: for MUC3 mRNA/28S rRNA ratio, mean / MUC3 mRNA stimulation (in words): peptides at 50 μg/ml, 30 minutes at 37° C.; for MUC3 mRNA/28S rRNA ratio, mean / MUC3/28S rRNA ratio, mean: control = 100; for MUC3/28S rRNA ratio, mean: 30 min 37° C.; for MUC3 mRNA stimulation (in words): versus control. From the text:
(§1) Different mucin genes have been identified and to date, thirteen human mucin genes have been identified. However, MUC3 mucin is the predominant small intestinal mucin. It has previously been shown that the MUC3 mucins are effective in preventing the adherence of enteropathogenic Escherichia coli (EPEC) to intestinal epithelial cells. […] It is also well known that breast-feeding infants are far less susceptible to infectious diarrhea than formula fed infants. There are a number of theories why this is so, but it is hypothesized that milk-associated amyloid (colostrum SAA) may be an important inducer of MUC3 gene expression. Applicant has evaluated MUC3 mRNA expression using an in vitro human cell culture assay system. […] To further explore this finding, Applicant has evaluated the functional specificity of the N-terminal peptide sequence of colostrum SAA by evaluation of MUC3 expression in the same in vitro assay using colostrum SAA N-terminal peptide sequences that have been randomly scrambled and a colostrum SAA peptide sequence downstream of the N-terminal sequence. If the expression of MUC3 is increased then intestinal cells grown in the presence of colostrum SAA should have a greater capacity to inhibit adherence of bacterial pathogens. This was studied (FIG. 2B) using EPEC in an in vitro assay system pre-incubated with colostrum SAA in the cell culture medium. Enteropathogenic E. coli are non-invasive, non-toxin producing pathogens that have been recognized as a significant cause of diarrhea in third world countries and in day care settings in developed countries. Future studies will evaluate the benefits of colostrum SAA in in vivo studies as well as characterized animal equivalent to human EPEC. Colostrum associated SAA provides a means to naturally upregulate the innate protective mechanisms of the human intestine and would provide a novel form of therapy to a common problem that occurs all too often in the third world leads to death of infants and in the developed world countries and leads to significant morbidity and cost. Thus, this is an effective, natural, non-drug/chemical therapy for all infectious diarrhea.
(§2) These four peptides were used in a cell culture assay designed to evaluate them for their properties of inducing mucin (MUC) mRNA production, either MUC3 or MUC2 according to the methods described by Mack et al. (Biochem. Biophys. Res. Commun. 199: 1012-1018, 1994 and Am J Physiol. Vol. 4, part 1, pg. G841-950, 1999).
Intestinal epithelial cells, Mack et al. 1994, 1999, were exposed to the N-terminal 10 amino acid bovine colostrum-SAA peptide at various concentrations for 30 minutes incubation at 37° C. The cells were incubated an additional hour following replacement of the test medium with fresh medium without peptide and then the total cellular mRNA isolated and analyzed for MUC3 specific mRNA.
MUC3 stimulating activity of the N-terminal 10 amino acid bovine colostrum-SAA peptide was compared to the activity of the “Limited Scramble”, the “Total Scramble” and “C-Terminal peptides”. Optimum time and temperature of incubation and concentration of peptides was for 30 minutes at 37° C. at 50 μg/ml respectively.

The test system of a further data set is MUC2 mRNA. The data set can be described thus: MUC2 mRNA induction in intestinal epithelial cells (MUC2 mRNA/28S rRNA ratio). To be noted: for MUC2 mRNA/28S rRNA ratio, mean: conditions favoring MUC2 expression, peptides at conditions optimized for MUC3 (50 μg/ml, 30 min), control = 100. Format: cell-based, human.
Text: as §2
MUC2 Stimulation. To address whether the N-Terminal 10 amino acid bovine colostrum-SAA peptide would stimulate mRNA synthesis for MUC2 production, intestinal epithelial cells were cultured under conditions favoring MUC2 expression rather than MUC3. All peptides were used at concentrations and conditions that were previously optimized for MUC3 stimulation. None of the peptides stimulated the production of MUC2 mRNA. […] Additionally, conditions were changed to 2× the optimum MUC3 incubation time (1 hr). […] The evidence strongly indicates specificity of function in stimulating the production of a mucin produced mainly in the small intestine (MUC3) over one produced primarily in the large intestine (MUC2).

Data set [1] deals with EPEC adherence to HT29 human intestinal cells. The data set can be described thus: Inhibition of EPEC adherence to HT29 cells (FIG. 4B). Format: cell-based, enteropathogenic Escherichia coli. To be noted: before 10^6 CFU/well EPEC, 3 h incubation, P<0.03. As for the experimental part: FIG. 4B is a graph showing the comparative inhibition of EPEC adherence to HT29 human intestinal cells grown in a glucose-free galactose-containing cell culture medium to enhance MUC3 expression. Each well received either 10^9 CFU of the probiotic L. rhamnosus strain GG (LrGG), a single dose (1×) of the 10-mer peptide at 50 μg/mL (LS, Bov50, or Hum50) or at 250 μg/mL (Bov250 or Hum250), or two separate doses (2×) at 1 h intervals of the 10-mer peptide at 250 μg/mL. Samples were incubated at 37° C. with the HT29 cells for either a total of 1 h (single dose, 1×) or 2 h (two doses, 2×) prior to the addition of 10^6 CFU/well of EPEC. After a 3 h incubation, EPEC adherent to the HT29 cells were quantified by determining CFU/well. Results are expressed as means ±SEM of 2-6 independent experiments run in triplicate. Amino acid sequences for the 10-mer peptides are detailed in Table 1 referred to on page 37.
as §1, with “Colostrum associated SAA provides a means to naturally upregulate the innate protective mechanisms of the human intestine and would provide a novel form of therapy to a common problem that occurs all too often in the third world leads to death of infants and in the developed world countries and leads to significant morbidity and cost. Thus, this is an effective, natural, non-drug/chemical therapy for all infectious diarrhea.” left out

A short description of data set [2]: Isoelectric focusing / 2-D gel of SAA preparations. Type of data set: physicochemical, bovine. From the text: The PROTEIN IEF Cell (BioRad) was used for the isoelectric focusing of the various SAA preparations. Ready Strip IPG Strips (BioRad Laboratories) with a pH range of 3-10 were used for the IEF. The second dimension (2-D) of the protein analysis was done by subjecting the IPG strips to 12% SDS-PAGE gel and electroblotting onto a PVDF membrane. The strips and blots were done in duplicate so that one of the blots could be stained with a protein stain, Coomassie Brilliant Blue, (CBB) and the other stained with the anti-SAA monoclonal antibody for the identification of the SAA protein isoforms. The samples also contained internal IEF standards (BioRad Laboratories) so that isoelectric point (pI) of each SAA isoforms could be determined. By comparing the antibody stained spots to the spots of the standards stained with CBB the apparent pI of the SAA isoforms could be determined. All of these procedures were done according to the protocol recommended by the manufacturer.
The proteins subjected to the IEF and 2-D analysis were either affinity purified as described for the cell culture fluid or, in the case of the serum only semi-purified by hydrophobic chromatography. SAA is a highly hydrophobic molecule and will bind readily to Octyl Sepharose beads and then under the appropriate conditions can be eluted off the matrix. Briefly, serum with an elevated SAA level was tumbled for one hour with an equal volume of Octyl Sepharose CL-4B gel to allow for hydrophobic binding of the proteins from the serum to the gel. […]
The PROTEIN IEF Cell (BioRad) was used for the isoelectric focusing of the MAA preparations. […] Ready strip IPG Strips (BioRad Laboratories) with a pH range of 3-10 and 7-10 were used for the IEF. […] By comparing the spots stained with the antibody on the blot of the 2D gel from the MAA purified from colostrum and the MAA from the culture fluid of MAC-T cells stimulated with LPS, the similarities of the isoforms could be determined. Each sample was first analyzed on a pH 3-10 IPG strip for the first dimension of separation and then a subsequent sample analyzed on a pH 7-10 IPG strip.

In the case of “GKFAWEGMTL [Total Scramble, control peptide, amino acids of the entire N-Terminal peptide arranged in random order, reference compound]”, the “MUC3 mRNA/28S rRNA ratio, mean” value in the data set on MUC3 mRNA was found to be 109.333. The “MUC2 mRNA/28S rRNA ratio, mean” value in the data set with MUC2 mRNA was 65.833.
Turning to MWGTFLKEAG [N-terminal], in the data set on MUC3 mRNA (30 minutes incubation at 37° C.), the “optimum concentration for MUC3 mRNA stimulation” value came out at 50 µg/mL. Further, the “MUC3/28S rRNA ratio, mean” value turned out to be 105.429 with MUC3 mRNA (peptide concentration 1 (μg/ml)); 105.857 in the data set with MUC3 mRNA (peptide concentration 10 (μg/ml)); 145.000 with MUC3 mRNA (peptide concentration 25 (μg/ml)); 220.500 in the data set on MUC3 mRNA (peptide concentration 50 (μg/ml)); 103.125 in the data set with MUC3 mRNA (peptide concentration 100 (μg/ml)). The “MUC3 mRNA/28S rRNA ratio, mean” value in the data set with MUC3 mRNA came to 174.833. The “MUC3 mRNA stimulation (in words)” value with MUC3 mRNA is given as “increased MUC3 mRNA expression”; with MUC3 mRNA (listed as N-Terminal), “the only peptide that stimulated MUC3 mRNA statistically significantly over the control values”. Besides, the “MUC2 mRNA stimulation (in words)” value with MUC2 mRNA (100 and 500 μg/ml, and 2× incubation time (1 hr)) is “None of these changes resulted in MUC2 mRNA increase over control values”; in the data set with MUC2 mRNA (concentrations and conditions optimized for MUC3 stimulation), “not significantly different”. In the data set with MUC2 mRNA, the “MUC2 mRNA/28S rRNA ratio, mean” value was 101.167. The “EPEC adherence to HT29 cells relative to untreated cells (in words)” value in data set [1] (10-mer peptide at 50 μg/mL) and in data set [1] (10-mer peptide at 250 μg/mL) was “significantly decreased adherence of EPEC” each time.
As for “MWGLTKFEAG [Limited Scramble, Bovine MAA with TFLK motif scrambled]”, in the data set with MUC3 mRNA, the “MUC3 mRNA/28S rRNA ratio, mean” value amounted to 95.000 and the “MUC3 mRNA stimulation (in words)” value is reported as “lack of stimulation”. The “MUC2 mRNA/28S rRNA ratio, mean” value with MUC2 mRNA came to 87.167.
For “SAADAAQRGPQQA [C-terminal, control 10 amino acid peptide in which the first 7 were from residues 62-69 of bovine SAA, reference compound]”, the “MUC3 mRNA/28S rRNA ratio, mean” value with MUC3 mRNA was found to be 111.333. Further, in the data set with MUC2 mRNA, the “MUC2 mRNA/28S rRNA ratio, mean” value is 67.500.
Turning to GWLTFLKAAG [Hum], the “EPEC adherence to HT29 cells relative to untreated cells (in words)” value in data set [1] (10-mer peptide at 50 μg/mL) and in data set [1] (10-mer peptide at 250 μg/mL) was “significantly decreased adherence of EPEC” in each case.

B1: colostrum-SAA: bovine mammary-associated serum amyloid A 3, purified from colostrum or MAC-T cell culture fluid (protein)
chain: QRWGTFLKEAGQGAKDMWRAYQDMKEANYRGADKYFHARGNYDAARRGPGGAWAAKVISNARETIQGITDPLFKGMTRDQVREDSKADQFANEWGRSGKDPNHFRPAGLPDKY
As to B1, the pI result is listed as “greater than 8” in data set [2] (from both colostrum and MAC-T cell culture fluid (prolactin), pH 3-10 IPG strips); 9.4-9.6 in data set [2] (purified from culture fluid of MAC-T cells stimulated with LPS, only one isoform, pH 3-10 and 7-10 IPG strips). The “apparent pI” value in data set [2] (pH 3-10 IPG strips, internal IEF standards) is given as 9.4-9.6.
